Values of other authors as cited in patent US20180169018A1, “Method for improving the dissolution profile of a biologically active material” (iCeutica Pty Ltd., priority 2009, published 2018).

Settings: absorption by the body

For `Cc1cnc(NC(=O)C2=C(O)c3ccccc3S(=O)(=O)N2C)s1` [Meloxicam, meloxicam], the Tmax is listed as 4 to 5 h.
